Laboratory results taken from patent US8134015B2, “Compound inhibiting in vivo phosphorous transport and medicine containing the same” (Kyowa Hakko Kirin Co., Ltd., priority 2003, dated 2012).

Biological target: T1, rat NaPi-2b (Rattus norvegicus, UniProt Q9JJ09)
T1 construct: expressed in transfected cells; host or cells: Xenopus oocytes injected with cRNA
T1 sequence (Q9JJ09 1-695): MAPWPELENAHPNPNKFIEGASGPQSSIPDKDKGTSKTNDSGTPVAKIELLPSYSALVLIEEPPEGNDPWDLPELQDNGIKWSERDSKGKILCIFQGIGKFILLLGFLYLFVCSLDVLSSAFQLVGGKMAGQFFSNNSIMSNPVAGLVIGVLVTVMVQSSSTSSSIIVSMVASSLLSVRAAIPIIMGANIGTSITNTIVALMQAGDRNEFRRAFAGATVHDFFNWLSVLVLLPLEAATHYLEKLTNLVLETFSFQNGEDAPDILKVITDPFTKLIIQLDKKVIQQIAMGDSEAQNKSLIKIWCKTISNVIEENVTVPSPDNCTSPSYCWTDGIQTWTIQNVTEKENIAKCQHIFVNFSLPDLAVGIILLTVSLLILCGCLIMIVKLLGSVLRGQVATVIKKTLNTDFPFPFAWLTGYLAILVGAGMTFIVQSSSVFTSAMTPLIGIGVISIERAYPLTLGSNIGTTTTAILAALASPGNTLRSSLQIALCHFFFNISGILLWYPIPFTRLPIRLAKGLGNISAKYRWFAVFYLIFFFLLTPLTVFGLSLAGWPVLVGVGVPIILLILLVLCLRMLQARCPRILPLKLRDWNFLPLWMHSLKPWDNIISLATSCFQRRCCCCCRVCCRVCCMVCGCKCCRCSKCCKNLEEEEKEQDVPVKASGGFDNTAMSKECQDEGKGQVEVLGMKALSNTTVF
Test: Sodium-dependent phosphate uptake of Xenopus oocytes which expressed NaPi-2b (32P)
Type: cell-based
Conditions: for IC50: Xenopus oocytes expressing rat NaPi-2b, 32P radioactive phosphorus, read-out: IC50 (phosphate uptake inhibitory activity); for inhibition at 300 µM: phosphate uptake, oocytes expressing rat NaPi-2b, determined from inhibition curve
Procedure, shortened: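 Percent inhibition at 300 μM and 100 μM comes from the same inhibition curve of 32P uptake. Assay used oocytes expressing rat NaPi-2b after 2 days of culture.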

Row | SMILES | IC50 [µM] | inhibition at 300 µM [%]
1 | CCN(CC)CCN(C)Cc1cccc(C(=O)Nc2ccc(Cl)cc2C(=O)N/N=C/c2cccc(C)c2)c1 [Compound 381, N-[4-Chloro-2-(3-methyl-benzylidene-hydrazinocarbonyl)-phenyl]-3-{[(2-diethylamino-ethyl)-methyl-amino]-methyl}-benzamide] | 1 | –
2 | Cc1cc(/C=N/NC(=O)c2cc(Cl)ccc2NC(=O)c2cccnc2)oc1C [Compound 222, N-[4-Chloro-2-(4,5-dimethyl-furan-2-ylmethylene-hydrazinocarbonyl)-phenyl]-nicotinamide] | 8.86 | –
3 | CCN(CC)CCN(C)Cc1ccc(C(=O)Nc2ccc(Br)cc2C(=O)N/N=C/c2cccc(C)c2)cc1 [Compound 286, N-[4-Bromo-2-(3-methyl-benzylidene-hydrazinocarbonyl)-phenyl]-4-{[(2-diethylamino-ethyl)-methyl-amino]-methyl}-benzamide] | 0.57 | –
4 | O=C(Nc1ccccc1C(=O)N/N=C/c1cccc(F)c1)c1ccccc1 [Compound 226, N-[2-(3-Fluoro-benzylidene-hydrazinocarbonyl)-phenyl]-benzamide] | 1.69 | –
5 | COc1ccc(/C=N/NC(=O)c2cc(Br)ccc2NC(=O)c2ccc(CN3CCC(O)CC3)cc2)cc1 [Compound 330, N-[4-Bromo-2-(4-methoxy-benzylidene-hydrazinocarbonyl)-phenyl]-4-(4-hydroxy-piperidin-1-ylmethyl)-benzamide] | 10.7 | –
6 | COc1ccc(C(=O)Nc2ccc(Br)cc2C(=O)N/N=C/c2ccccc2F)cc1OC [Compound 28, N-[4-Bromo-2-(2-fluoro-benzylidene-hydrazinocarbonyl)-phenyl]-3,4-dimethoxy-benzamide] | 5.12 | –
7 | Cc1ccc(/C=N/NC(=O)c2cc(OCCCCF)ccc2NC(=O)c2cccc(CSCCO)c2)cc1 [Compound 1052, N-[4-(4-Fluoro-butoxy)-2-(4-methyl-benzylidene-hydrazinocarbonyl)-phenyl]-3-(2-hydroxy-ethylsulfanylmethyl)-benzamide] | 1.33 | –
8 | COc1ccc(C(=O)Nc2cc(Cl)ccc2C(=O)N/N=C/c2cccc(C)c2)cc1OC [Compound 73, N-[5-Chloro-2-(3-methyl-benzylidene-hydrazinocarbonyl)-phenyl]-3,4-dimethoxy-benzamide] | 1.75 | –
9 | COc1ccc(C(=O)Nc2ccccc2C(=O)N/N=C/c2ccc(F)cc2)cc1OC [Compound 16, N-[2-(4-Fluoro-benzylidene-hydrazinocarbonyl)-phenyl]-3,4-dimethoxy-benzamide] | 2.3 | –
10 | CCN(CC)CCN(C)Cc1cccc(C(=O)Nc2ccc(I)cc2C(=O)N/N=C/c2ccc(O)cc2)c1 [Compound 481, 3-{[(2-Diethylamino-ethyl)-methyl-amino]-methyl}-N-[2-(4-hydroxy-benzylidene-hydrazinocarbonyl)-4-iodo-phenyl]-benzamide] | 12.1 | –
11 | Cc1ccc(/C=N/NC(=O)c2ccccc2NC(=O)c2ccccc2F)cc1 [Compound 40, 2-Fluoro-N-[2-(4-methyl-benzylidene-hydrazinocarbonyl)-phenyl]-benzamide] | 2.03 | –
12 | O=C(Nc1ccc(Br)cc1C(=O)N/N=C/c1ccc(F)cc1)c1ccncc1 [Compound 167, N-[4-Bromo-2-(4-fluoro-benzylidene-hydrazinocarbonyl)-phenyl]-isonicotinamide] | 30.2 | –
13 | O=C(Nc1ccc(Cl)cc1C(=O)N/N=C/c1ccc(F)cc1)c1cccc(CSc2nc[nH]n2)c1 [Compound 390, N-[4-Chloro-2-(4-fluoro-benzylidene-hydrazinocarbonyl)-phenyl]-3-(1H-[1,2,4]triazol-3-ylsulfanylmethyl)-benzamide] | 0.45 | –
14 | COc1ccc(NC(=O)c2ccc(OC)c(OC)c2)c(C(=O)N/N=C/c2ccc(F)cc2)c1 [Compound 142, N-[2-(4-Fluoro-benzylidene-hydrazinocarbonyl)-4-methoxy-phenyl]-3,4-dimethoxy-benzamide] | 9.2 | –
15 | O=C(Nc1ccc(Br)cc1C(=O)N/N=C/c1ccc(F)cc1)c1ccc(CNCCN2CCOCC2)cc1 [Compound 284, N-[4-Bromo-2-(4-fluoro-benzylidene-hydrazinocarbonyl)-phenyl]-4-[(2-morpholin-4-yl-ethylamino)-methyl]-benzamide] | 26.9 | –
16 | COc1cc(OC)cc(C(=O)Nc2ccc(Br)cc2C(=O)N/N=C/c2ccc(F)cc2)c1 [Compound 115, N-[4-Bromo-2-(4-fluoro-benzylidene-hydrazinocarbonyl)-phenyl]-3,5-dimethoxy-benzamide] | 5.48 | –
17 | COc1cccc(CNNC(=O)c2cc(Br)ccc2NC(=O)c2ccc(CN3CCC(N4CCCCC4)CC3)cc2)c1 [Compound 378, 4-[1,4′]Bipiperidinyl-1′-ylmethyl-N-{4-bromo-2-[N′-(3-methoxy-benzyl)-hydrazinocarbonyl]-phenyl}-benzamide] | 4.35 | –

Next, values leading:

Row | IC50 [µM] | inhibition at 300 µM [%] | SMILES
18 | < 3 | – | Cc1ccc(/C=N/NC(=O)c2c(C)csc2NC(=O)c2cccc(CN3CCC(N4CCCCC4)CC3)c2)cc1C [Compound 569, 3-[1,4′]Bipiperidinyl-1′-ylmethyl-N-[3-(3,4-dimethyl-benzylidene-hydrazinocarbonyl)-4-methyl-thiophen-2-yl]-benzamide]
19 | – | 81 | CCN(CC)CCN(C)Cc1cccc(C(=O)Nc2c(C)csc2C(=O)N/N=C/c2cccc(F)c2)c1 [Compound 529, 3-{[(2-Diethylamino-ethyl)-methyl-amino]-methyl}-N-[2-(3-fluoro-benzylidene-hydrazinocarbonyl)-4-methyl-thiophen-3-yl]-benzamide]
20 | 5.91 | – | COc1ccc(/C=N/NC(=O)c2c(NC(=O)c3cccc(CN4CCC(CO)CC4)c3)sc3c2CCCC3)cc1 [Compound 644, 3-(4-Hydroxymethyl-piperidin-1-ylmethyl)-N-[3-(4-methoxy-benzylidene-hydrazinocarbonyl)-4,5,6,7-tetrahydro-benzo-[b]thiophen-2-yl]-benzamide]
21 | 18.3 | – | CCOCCN(CCOCC)Cc1ccc(C(=O)Nc2ccc(Br)cc2C(=O)N/N=C/c2cccc(C)c2)cc1 [Compound 735, 4-{[Bis-(2-ethoxy-ethyl)-amino]-methyl}-N-[4-bromo-2-(3-methyl-benzylidene-hydrazinocarbonyl)-phenyl]-benzamide]
22 | 3.94 | – | CCN(CC)CCN(C)Cc1cccc(C(=O)Nc2ccc(OC)cc2C(=O)N/N=C/c2ccc(OC)cc2)c1 [Compound 1024, 3-{[(2-Diethylamino-ethyl)-methyl-amino]-methyl}-N-[4-methoxy-2-(4-methoxy-benzylidene-hydrazinocarbonyl)-phenyl]-benzamide]
23 | 27.3 | – | Cc1cccc(/C=N/NC(=O)c2cc(Br)ccc2NC(=O)c2ccc(CN3CCN(CC(=O)N4CCOCC4)CC3)cc2)c1 [Compound 729, N-[4-Bromo-2-(3-methyl-benzylidene-hydrazinocarbonyl)-phenyl]-4-[4-(2-morpholin-4-yl-2-oxo-ethyl)-piperazin-1-ylmethyl]-benzamide]
24 | – | 40.2 | Cc1ccc(/C=N/NC(=O)c2scc(C)c2NC(=O)c2cccc(CSCCCO)c2)cc1 [Compound 526, 3-(3-Hydroxy-propylsulfanylmethyl)-N-[4-methyl-2-(4-methyl-benzylidene-hydrazinocarbonyl)-thiophen-3-yl]-benzamide]
25 | 1.89 | – | O=C(Nc1ccc(Cl)cc1C(=O)N/N=C/c1ccc(OC(F)(F)F)cc1)c1cccc(CSCC(O)CO)c1 (stereo not shown) [Compound 1012, N-[4-Chloro-2-(4-trifluoromethoxy-benzylidene-hydrazinocarbonyl)-phenyl]-3-(2,3-dihydroxy-propylsulfanylmethyl)-benzamide]
26 | – | 50.9 | Cc1ccc(/C=N/NC(=O)c2cc(Br)ccc2NC(=O)c2ccc(CN3CCC(CCO)CC3)cc2)cc1 [Compound 741, N-[4-Bromo-2-(4-methyl-benzylidene-hydrazinocarbonyl)-phenyl]-4-[4-(2-hydroxy-ethyl)-piperidin-1-ylmethyl]-benzamide]
27 | 10.3 | – | CCOc1ccc(C(=O)Nc2ccc(Br)cc2C(=O)N/N=C/c2ccc(C)cc2)cc1 [Compound 503, N-[4-Bromo-2-(4-methyl-benzylidene-hydrazinocarbonyl)-phenyl]-4-ethoxy-benzamide]
28 | 14.2 | – | CCN(CC)CCN(C)Cc1cccc(C(=O)Nc2cc(OCCOC)c(OCCOC)cc2C(=O)N/N=C/c2ccc(C)c(C)c2)c1 [Compound 1030, 3-{[(2-Diethylamino-ethyl)-methyl-amino]-methyl}-N-[2-(3,4-dimethyl-benzylidene-hydrazinocarbonyl)-4,5-bis-(2-methoxy-ethoxy)-phenyl]-benzamide]
